System: 699152-130-R-J1-PDC complex spheroid growth
Test: Anticancer human tumor 699152-130-R-J1-PDC patient-derived pancreatic carcinoma cell line growth inhibition [AhR]
Conditions: for IC50: curve of first compound; for viability, T/C: stronger effect = lower value
In short: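 Spheroids combined tumor cells with HUVEC endothelial cells and human MSCs as stroma. AhR antagonists were paired with standard or investigational drugs, each dosed in half-log steps down from near clinical Cmax, or from 10 microM where Cmax was unknown.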

[1] = second compound 0.1 µM, first compound 0.0316 µM
[2] = second compound 0.1 µM, first compound 0.1 µM
[3] = second compound 0.1 µM, first compound 0.316 µM
[4] = second compound 0.1 µM, first compound 1 µM
[5] = second compound 0.1 µM, first compound 3.16 µM
[6] = second compound 0.1 µM, first compound 10 µM
[7] = second compound 0.316 µM, first compound 0.0316 µM
[8] = second compound 0.316 µM, first compound 0.1 µM
[9] = second compound 0.316 µM, first compound 0.316 µM
[10] = second compound 0.316 µM, first compound 1 µM
[11] = second compound 0.316 µM, first compound 3.16 µM
[12] = second compound 0.316 µM, first compound 10 µM
[13] = second compound 1 µM, first compound 0.0316 µM
[14] = second compound 1 µM, first compound 0.1 µM
[15] = second compound 1 µM, first compound 0.316 µM
[16] = second compound 1 µM, first compound 1 µM
[17] = second compound 1 µM, first compound 3.16 µM
[18] = second compound 1 µM, first compound 10 µM
[19] = second compound 3.16 µM, first compound 0.0316 µM
[20] = second compound 3.16 µM, first compound 0.1 µM
[21] = second compound 3.16 µM, first compound 0.316 µM
[22] = second compound 3.16 µM, first compound 1 µM
[23] = second compound 3.16 µM, first compound 3.16 µM
[24] = second compound 3.16 µM, first compound 10 µM
[25] = second compound 10 µM, first compound 0.0316 µM
[26] = second compound 10 µM, first compound 0.1 µM
[27] = second compound 10 µM, first compound 0.316 µM
[28] = second compound 10 µM, first compound 1 µM
[29] = second compound 10 µM, first compound 3.16 µM
[30] = second compound 10 µM, first compound 10 µM
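Further: compound exposure lasted 7 days after spheroids had grown for 3 days.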

Row | IC50 (second compound 0.1 µM) [µM] | IC50 (second compound 0.316 µM) [µM] | IC50 (second compound 1 µM) [µM] | IC50 (second compound 3.16 µM) [µM] | IC50 (second compound 10 µM) [µM] | SMILES | viability, T/C [1] [%] | viability, T/C [2] [%] | viability, T/C [3] [%] | viability, T/C [4] [%] | viability, T/C [5] [%] | viability, T/C [6] [%] | viability, T/C [7] [%] | viability, T/C [8] [%] | viability, T/C [9] [%] | viability, T/C [10] [%] | viability, T/C [11] [%] | viability, T/C [12] [%] | viability, T/C [13] [%] | viability, T/C [14] [%] | viability, T/C [15] [%] | other results
1 | 7.66 | 6.79 | 7.2 | 8.03 | > 10 | Nc1ccccc1NC(=O)c1ccc(CNC(=O)OCc2cccnc2)cc1 + Cc1ccccc1N=Nc1ccc(NC(=O)c2ccnn2C)c(C)c1 | 85.7 | 97.6 | 102 | 111 | 77.8 | 41.6 | 90.6 | 93.8 | 89.5 | 90.7 | 67.5 | 41.1 | 97.1 | 95.3 | 107 | viability, T/C [16]: 97.4%; viability, T/C [17]: 76.6%; viability, T/C [18]: 39.4%; viability, T/C [19]: 93.2%; viability, T/C [20]: 93.3%; viability, T/C [21]: 104%; viability, T/C [22]: 112%; viability, T/C [23]: 73.2%; viability, T/C [24]: 44.5%; viability, T/C [25]: 115%; viability, T/C [26]: 116%; viability, T/C [27]: 109%; viability, T/C [28]: 102%; viability, T/C [29]: 91.8%; viability, T/C [30]: 58.2%
2 | 3.77 | 4.81 | 4.41 | 4.24 | 2.61 | COc1ccc([C@@H](O)c2cc(-c3ncnc4cc(N5CCOCC5)ccc34)c(F)cc2Cl)nn1 + CC(CO)NC(=O)c1cc(-c2ccc(Cl)cc2)nn(-c2cnn(C)c2)c1=O | 95.1 | 105 | 86.2 | 78.6 | 52.5 | 33.1 | 93.5 | 90.2 | 91.9 | 74.3 | 61.5 | 32.1 | 108 | 100 | 94.2 | viability, T/C [16]: 74.1%; viability, T/C [17]: 56.5%; viability, T/C [18]: 35.9%; viability, T/C [19]: 85%; viability, T/C [20]: 105%; viability, T/C [21]: 94.9%; viability, T/C [22]: 70.6%; viability, T/C [23]: 58.8%; viability, T/C [24]: 34.8%; viability, T/C [25]: 88.8%; viability, T/C [26]: 87.9%; viability, T/C [27]: 68.9%; viability, T/C [28]: 63.4%; viability, T/C [29]: 47.1%; viability, T/C [30]: 38.1%
3 | 0.898 | 0.837 | 0.889 | 0.512 | < 0.0316 | NS(=O)(=O)OCC1CC(n2ccc3c(NC4CCc5ccccc54)ncnc32)CC1O (stereo not given) + Cc1cncc(-c2nc(NCCc3c[nH]c4ccccc34)c3ncn(C(C)C)c3n2)c1 | 112 | 128 | 145 | 41.8 | 21.5 | 20.9 | 114 | 132 | 147 | 35.2 | 18.9 | 21.4 | 131 | 156 | 149 | viability, T/C [16]: 39.1%; viability, T/C [17]: 18.8%; viability, T/C [18]: 18.3%; viability, T/C [19]: 104%; viability, T/C [20]: 103%; viability, T/C [21]: 74.2%; viability, T/C [22]: 16.5%; viability, T/C [23]: 8.14%; viability, T/C [24]: 9.66%; viability, T/C [25]: 23.7%; viability, T/C [26]: 17.8%; viability, T/C [27]: 10.1%; viability, T/C [28]: 5.16%; viability, T/C [29]: 4.2%; viability, T/C [30]: 3.67%

Source: PubChem BioAssay AID1919001 (Molecular Pharmacology Branch, DTP, NCI, 2023)
